Assay: Solubility of surfactants in the base formulation of Example 12
Type: physicochemical
Details: base solution of water, dipotassium hydrogen phosphate, potassium hydroxide, benzotriazole; without hydrotrope
Procedure: A base solution comprising 907.77 g deionised water, 46.22 g of anhydrous dipotassium hydrogen phosphate, 30.98 g of 48% w/w potassium hydroxide solution and 10.36 g benzotriazole was prepared. In the case of Surfadone LP100 and Makon NF12, these surfactants were insoluble in the base formulation, and so were solublised using the hydrotrope, Triton H66 (see formulations 12-D and 12-F).

SMILES: CCCCCCCCN1CCCC1=O [Surfadone LP100, N-octyl-2-pyrrolidone]
- solubility in the base formulation: insoluble

— patent US12427215B2, “Endoscope disinfectant” (Whiteley Corporation Pty Ltd, priority 2019, dated 2025)
